Test results: ChEMBL document CHEMBL4418500, “Methods of preventing or treating atherosclerosis with inhibitors of specific isoenzymes of human neuraminidase” (2018)
≈ marks a conversion by molar mass, not a printed value. Calls of active or inactive are those of the source. No cut-off for these calls is given here.

Experiments:
Mus musculus [1] = experiment: Reduction in size of fatty streaks in aortic root of normal diet fed 12 week old ApoE KO mouse at 1 mg/kg, ip treated for 4 weeks (once every 2 days for first 2 weeks and then every day for third and the fourth weeks) by Oil Red O staining based assay relative to control; format: functional
[2] = target: T1, Sialidase-3 (Homo sapiens) (UniProt Q9UQ49); settings: 1 mM
T1 sequence (whole entry): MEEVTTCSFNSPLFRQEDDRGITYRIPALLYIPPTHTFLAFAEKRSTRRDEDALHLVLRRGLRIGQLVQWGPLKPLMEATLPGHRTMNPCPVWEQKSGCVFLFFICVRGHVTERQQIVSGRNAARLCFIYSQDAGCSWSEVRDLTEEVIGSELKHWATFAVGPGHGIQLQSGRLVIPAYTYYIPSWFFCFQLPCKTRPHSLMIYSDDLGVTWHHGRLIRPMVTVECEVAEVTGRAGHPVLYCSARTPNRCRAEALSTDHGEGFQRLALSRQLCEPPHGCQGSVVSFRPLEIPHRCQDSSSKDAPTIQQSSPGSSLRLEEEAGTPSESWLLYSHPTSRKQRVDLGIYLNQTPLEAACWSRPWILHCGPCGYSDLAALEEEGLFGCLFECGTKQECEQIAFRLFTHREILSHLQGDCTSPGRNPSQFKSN

Mus musculus [3] = experiment: Inhibition of neuraminidase-1 activity in normal diet fed ApoE KO mouse at 30 mg/kg, ip treated for 2 weeks (once every 2 days for first week and then every day for second week) by X-Neu5Ac substrate based histochemical assay relative to control; format: functional
[4] = Toxicity in normal diet fed 12 week old ApoE KO mouse assessed as induction of cytoplasmic vacuolization at 30 mg/kg, ip treated for 4 weeks (once every 2 days for first 2 weeks and then every day for third and the fourth weeks); format: organism-based; settings: in vivo
Mus musculus [5] = experiment: Inhibition of neuraminidase-1 activity in kidney of wild type C57BI6 mouse at 30 mg/kg, ip dosed for 2 consecutive days and measured 17 hrs post last dose by X-Neu5Ac substrate based histochemical assay relative to control; format: functional
Mus musculus [6] = experiment: Reduction in size of fatty streaks in aortic root of normal diet fed 16 week old ApoE KO mouse at 30 mg/kg, ip treated for 2 weeks (once every 2 days for first week and then every day for second week) by Oil Red O staining based assay relative to control; format: functional; design: scale not given: the % may be the effect or the level left
Mus musculus [7] = organism: Mus musculus; experiment: Effect on lipid composition in ApoE KO mouse assessed as effect on total cholesterol level; format: functional, organism-based
[8] = Toxicity in normal diet fed 12 week old ApoE KO mouse assessed as induction of bleeding at 30 mg/kg, ip treated for 4 weeks (once every 2 days for first 2 weeks and then every day for third and the fourth weeks); format: organism-based; settings: in vivo
[9] = Toxicity in normal diet fed 16 week old ApoE KO mouse assessed as induction of cytoplasmic vacuolation at 30 mg/kg, ip treated for 2 weeks (once every 2 days for first week and then every day for second week) by Oil Red O staining based assay relative to control; format: organism-based; settings: in vivo
[10] = Toxicity in normal diet fed 16 week old ApoE KO mouse assessed as effect on behavior at 30 mg/kg, ip treated for 2 weeks (once every 2 days for first week and then every day for second week) by Oil Red O staining based assay relative to control; format: organism-based; settings: in vivo
Mus musculus [11] = organism: Mus musculus; experiment: Effect on lipid composition in ApoE KO mouse assessed as increase in LDL cholesterol relative to control; format: functional
Mus musculus [12] = organism: Mus musculus; experiment: Effect on lipid composition in ApoE KO mouse assessed as effect on triglycerides level; format: functional, organism-based
[13] = Solubility in water; format: physicochemical
[14] = Toxicity in normal diet fed 16 week old ApoE KO mouse assessed as effect on body weight at 30 mg/kg, ip treated for 2 weeks (once every 2 days for first week and then every day for second week) by Oil Red O staining based assay relative to control; format: organism-based; settings: in vivo
[15] = Toxicity in normal diet fed 12 week old ApoE KO mouse assessed as effect on body weight at 30 mg/kg, ip treated for 4 weeks (once every 2 days for first 2 weeks and then every day for third and the fourth weeks); format: organism-based; settings: in vivo
Mus musculus [16] = experiment: Reduction in size of fatty streaks in aortic root of normal diet fed 12 week old ApoE KO mouse at 30 mg/kg, ip treated for 4 weeks (once every 2 days for first 2 weeks and then every day for third and the fourth weeks) by Oil Red O staining based assay relative to control; format: functional; design: scale not given: the % may be the effect or the level left
[17] = Toxicity in normal diet fed 12 week old ApoE KO mouse assessed as effect on behavior at 30 mg/kg, ip treated for 4 weeks (once every 2 days for first 2 weeks and then every day for third and the fourth weeks); format: organism-based; settings: in vivo
[18] = Toxicity in normal diet fed 16 week old ApoE KO mouse assessed as induction of bleeding at 30 mg/kg, ip treated for 2 weeks (once every 2 days for first week and then every day for second week) by Oil Red O staining based assay relative to control; format: organism-based; settings: in vivo
Mus musculus [19] = organism: Mus musculus; experiment: Effect on lipid composition in ApoE KO mouse assessed as effect on HDL-cholesterol level; format: functional, organism-based
[20] = Toxicity in normal diet fed 12 week old ApoE KO mouse assessed as induction of leukocyte infiltration at 30 mg/kg, ip treated for 4 weeks (once every 2 days for first 2 weeks and then every day for third and the fourth weeks); format: organism-based; settings: in vivo
[21] = Toxicity in normal diet fed 16 week old ApoE KO mouse assessed as induction of leukocyte infiltration at 30 mg/kg, ip treated for 2 weeks (once every 2 days for first week and then every day for second week) by Oil Red O staining based assay relative to control; format: organism-based; settings: in vivo
[22] = Toxicity in normal diet fed 12 week old ApoE KO mouse assessed as effect on body weight at 1 mg/kg, ip treated for 4 weeks (once every 2 days for first 2 weeks and then every day for third and the fourth weeks); format: organism-based; settings: in vivo
[23] = Toxicity in normal diet fed 12 week old ApoE KO mouse assessed as induction of leukocyte infiltration at 1 mg/kg, ip treated for 4 weeks (once every 2 days for first 2 weeks and then every day for third and the fourth weeks); format: organism-based; settings: in vivo
[24] = Toxicity in normal diet fed 12 week old ApoE KO mouse assessed as effect on behavior at 1 mg/kg, ip treated for 4 weeks (once every 2 days for first 2 weeks and then every day for third and the fourth weeks); format: organism-based; settings: in vivo
[25] = Toxicity in normal diet fed 12 week old ApoE KO mouse assessed as induction of cytoplasmic vacuolization at 1 mg/kg, ip treated for 4 weeks (once every 2 days for first 2 weeks and then every day for third and the fourth weeks); format: organism-based; settings: in vivo
[26] = Toxicity in normal diet fed 12 week old ApoE KO mouse assessed as induction of bleeding at 1 mg/kg, ip treated for 4 weeks (once every 2 days for first 2 weeks and then every day for third and the fourth weeks); format: organism-based; settings: in vivo
Mus musculus [27] = experiment: Inhibition of neuraminidase-4 activity in spleen of wild type C57BI6 mouse at 30 mg/kg, ip dosed for 2 consecutive days and measured 17 hrs post last dose by X-Neu5Ac substrate based histochemical assay relative to control; format: functional
Mus musculus [28] = experiment: Inhibition of neuraminidase-3 activity in spleen of wild type C57BI6 mouse at 30 mg/kg, ip dosed for 2 consecutive days and measured 24 hrs post last dose by X-Neu5Ac substrate based histochemical assay relative to control; format: functional

Row | Structure (SMILES) | Activity (Mus musculus [1]) | Activity (Mus musculus [7]) | Activity (Mus musculus [11]) [%] | Activity (Mus musculus [12]) | Activity (Mus musculus [19]) | Activity [22] | Activity [23] | Activity [24] | Activity [25] | Activity [26] | other results
1 | CCCCC(=O)N[C@H]1[C@H]([C@H](O)[C@H](O)Cc2ccc(-c3ccccc3)cc2)OC(C(=O)O)=C[C@@H]1O | Active |  |  |  |  |  |  |  |  |  | 
2 | CC(=O)N[C@H]1[C@H]([C@H](O)[C@H](O)CO)OC(C(=O)O)=C[C@@H]1O |  |  |  |  |  |  |  |  |  |  | inhibition [2]: Active
3 | CC(=O)N[C@H]1[C@H]([C@H](O)[C@H](O)Cn2cc(-c3ccc(-c4ccccc4)cc3)nn2)OC(C(=O)O)=C[C@@H]1O | Active |  |  |  |  |  |  |  |  |  | 
4 | CCCCC(=O)NC[C@@H](O)[C@@H](O)[C@@H]1OC(C(=O)OC)=C[C@H](O)[C@H]1NC(C)=O |  | inactive | 50 | inactive | inactive |  |  |  |  |  | inhibition in vivo at 30 mg/kg (Mus musculus [3]): 70 to 80%; Activity [4]: Non-Toxic; inhibition in vivo at 30 mg/kg (Mus musculus [5]): 90%; Activity (Mus musculus [6]): 25%; Activity [8]: Non-Toxic; Activity [9]: Non-Toxic; Activity [10]: Non-Toxic; solubility ([13]; water, read-out: solubility): ≥ 1000 µg/mL; Activity [14]: Non-Toxic; Activity [15]: Non-Toxic; Activity (Mus musculus [16]): 25 - 50%; Activity [17]: Non-Toxic; Activity [18]: Non-Toxic; Activity [20]: Non-Toxic; Activity [21]: Non-Toxic
5 | COC(=O)C1=C[C@H](NC(=N)N)[C@@H](NC(C)=O)[C@H]([C@H](O)[C@H](O)Cn2cc(-c3ccc(-c4ccccc4)cc3)nn2)O1 | 25 - 50% | inactive | 50 | inactive | inactive | Non-Toxic | Non-Toxic | Non-Toxic | Non-Toxic | Non-Toxic | 
6 | CCCCC(=O)N[C@H]1[C@H]([C@H](O)[C@H](O)Cc2ccc(-c3ccccc3)cc2)OC(C(=O)OC)=C[C@@H]1O | 25 - 50% | inactive | 50 | inactive | inactive | Non-Toxic | Non-Toxic | Non-Toxic | Non-Toxic | Non-Toxic | solubility ([13]; water, read-out: solubility): ≥ 10000 µg/mL
7 | COC(=O)C1=C[C@H](O)[C@@H](NC(C)=O)[C@H]([C@H](O)[C@H](O)Cn2cc(-c3ccc(-c4ccccc4)cc3)nn2)O1 | 25 - 50% |  |  |  |  | Non-Toxic | Non-Toxic | Non-Toxic | Non-Toxic | Non-Toxic | inhibition in vivo at 30 mg/kg (Mus musculus [27]): 70 to 80%; solubility ([13]; buffer): 100 µg/mL (≈ 197 µM); inhibition in vivo at 30 mg/kg (Mus musculus [28]): 70 to 80%
8 | CC(=O)N[C@H]1[C@H]([C@H](O)[C@H](O)Cn2cc(-c3ccc(-c4ccccc4)cc3)nn2)OC(C(=O)O)=C[C@@H]1NC(=N)N | Active |  |  |  |  |  |  |  |  |  | 
9 | CCCCC(=O)NC[C@@H](O)[C@@H](O)[C@@H]1OC(C(=O)O)=C[C@H](O)[C@H]1NC(C)=O |  |  |  |  |  |  |  |  |  |  | Activity (Mus musculus [6]): Active; Activity (Mus musculus [16]): Active
